From the supplement of paper PMC13380429

Columns and labels:
Details in all cases: 72 h
HepG2 [1] = assay: cell viability relative to DMSO; higher = less toxic
U2OS [2] = assay: as above
Calu-3 [3] = assay: as above
Vero E6 [4] = assay: as above
Caco-2 [5] = assay: as above
HepG2 [6] = assay: drug sensitivity score (DSS) for viability; higher = more toxic; extreme values may be limits of the assay
U2OS [7] = assay: as above
Calu-3 [8] = assay: as above
Vero E6 [9] = assay: as above
Caco-2 [10] = assay: as above
HepG2 [11] = assay: relative viability EC50 (midpoint between 100% and the lowest measured viability); higher = less toxic
U2OS [12] = assay: as above
Calu-3 [13] = assay: as above
Vero E6 [14] = assay: as above
Caco-2 [15] = assay: as above

| SMILES | cell viability (HepG2 [1]; 1 nM) [%] | cell viability (HepG2 [1]; 10 nM) [%] | cell viability (HepG2 [1]; 100 nM) [%] | cell viability (HepG2 [1]; 1000 nM) [%] | cell viability (HepG2 [1]; 10000 nM) [%] | cell viability (U2OS [2]; 1 nM) [%] | cell viability (U2OS [2]; 10 nM) [%] | cell viability (U2OS [2]; 100 nM) [%] | cell viability (U2OS [2]; 1000 nM) [%] | cell viability (U2OS [2]; 10000 nM) [%] | cell viability (Calu-3 [3]; 1 nM) [%] | cell viability (Calu-3 [3]; 10 nM) [%] | cell viability (Calu-3 [3]; 100 nM) [%] | cell viability (Calu-3 [3]; 1000 nM) [%] | cell viability (Calu-3 [3]; 10000 nM) [%] | cell viability (Vero E6 [4]; 1 nM) [%] | cell viability (Vero E6 [4]; 10 nM) [%] | cell viability (Vero E6 [4]; 100 nM) [%] | cell viability (Vero E6 [4]; 1000 nM) [%] | cell viability (Vero E6 [4]; 10000 nM) [%] | cell viability (Caco-2 [5]; 1 nM) [%] | cell viability (Caco-2 [5]; 10 nM) [%] | cell viability (Caco-2 [5]; 100 nM) [%] | cell viability (Caco-2 [5]; 1000 nM) [%] | cell viability (Caco-2 [5]; 10000 nM) [%] | drug sensitivity score (HepG2 [6]) | drug sensitivity score (U2OS [7]) | drug sensitivity score (Calu-3 [8]) | drug sensitivity score (Vero E6 [9]) | drug sensitivity score (Caco-2 [10]) | relative viability EC50 (HepG2 [11]) [µM] | relative viability EC50 (U2OS [12]) [µM] | relative viability EC50 (Calu-3 [13]) [µM] | relative viability EC50 (Vero E6 [14]) [µM] | relative viability EC50 (Caco-2 [15]) [µM] |
| --- | --- | --- | --- | --- | --- | --- | --- | --- | --- | --- | --- | --- | --- | --- | --- | --- | --- | --- | --- | --- | --- | --- | --- | --- | --- | --- | --- | --- | --- | --- | --- | --- | --- | --- | --- |
| O=C(O)c1cc(O)c2ccc(Cl)cc2n1 [7-chlorokynurenic-acid] | 106 | 104 | 100 | 101 | 97 | 101 | 97.6 | 96.4 | 94.3 | 108 | 99.9 | 94.1 | 98.4 | 98 | 108 | 96.7 | 102 | 94.2 | 95.3 | 108 | 102 | 96.1 | 97.1 | 99.1 | 109 | 0 | 0 | 0 | 0 | 0 | > 10 | > 10 | > 10 | > 10 | > 10 |
| COc1cc2c(NC3CCN(C)CC3)nc(N3CCCN(C)CC3)nc2cc1OCCCN(C)C [UNC0224] | 90.3 | 97.4 | 98.8 | 101 | 95.9 | 103 | 96 | 104 | 101 | 101 | 143 | 103 | 94.2 | 97.9 | 98.9 | 96.7 | 102 | 101 | 102 | 98.1 | 99.3 | 101 | 89.9 | 95.8 | 103 | 0 | 0 | 0 | 0 | 0 | > 10 | > 10 | > 10 | > 10 | > 10 |
| CN1C(CCl)Nc2cc(Cl)c(S(N)(=O)=O)cc2S1(=O)=O (stereo not given) [methyclothiazide] | 96.3 | 96.1 | 106 | 104 | 105 | 104 | 96.9 | 101 | 98.4 | 102 | 103 | 91.8 | 97.9 | 105 | 108 | 94.3 | 96.6 | 94.8 | 99.4 | 99.7 | 101 | 103 | 104 | 103 | 94.9 | 0 | 0 | 0 | 0 | 0 | > 10 | > 10 | > 10 | > 10 | > 10 |
| NNC(=O)c1ccncc1 [isoniazid] | 107 | 108 | 100 | 103 | 93.7 | 101 | 96.6 | 101 | 96.7 | 102 | 110 | 98.7 | 100 | 99.2 | 99.8 | 97.8 | 106 | 97.9 | 97.9 | 98.4 | 97.4 | 99.4 | 103 | 91.7 | 97.6 | 0 | 0 | 0 | 0 | 0 | > 10 | > 10 | > 10 | > 10 | > 10 |
| Cn1cc(C(=O)c2cccc3ccccc23)cc1C(=O)O [napirimus] | 101 | 97.9 | 103 | 99.8 | 94.8 | 104 | 100 | 101 | 98.3 | 98.4 | 98.7 | 104 | 100 | 101 | 104 | 92.9 | 99.7 | 95.2 | 105 | 99 | 99.3 | 92 | 95.4 | 96.5 | 85.6 | 0 | 0 | 0 | 0 | 0 | > 10 | > 10 | > 10 | > 10 | > 10 |
| COc1ccccc1N1CCN(CCCCN2C(=O)c3ccccc3C2=O)CC1 [NAN-190] | 91.6 | 108 | 94 | 109 | 103 | 103 | 100 | 101 | 94.7 | 101 | 95.5 | 94.3 | 107 | 101 | 102 | 99.4 | 94.5 | 91.5 | 94.3 | 103 | 99.7 | 85.8 | 99.2 | 86.6 | 94.8 | 0 | 0 | 0 | 0 | 0 | > 10 | > 10 | > 10 | > 10 | > 10 |
| COC(=O)N[C@H](C(=O)N1CC2(CC2)C[C@H]1c1nc(-c2ccc3c(c2)C(F)(F)c2cc(-c4ccc5[nH]c([C@@H]6[C@H]7CC[C@H](C7)N6C(=O)[C@@H](NC(=O)OC)C(C)C)nc5c4)ccc2-3)c[nH]1)C(C)C [ledipasvir] | 97 | 109 | 96.6 | 96.7 | 101 | 100 | 99 | 101 | 94.2 | 86.6 | 95.9 | 106 | 108 | 110 | 97.7 | 94.3 | 99.7 | 91.9 | 99.7 | 108 | 93.8 | 93.5 | 98.1 | 94.5 | 87.5 | 0 | 0.5 | 0 | 0 | 0 | > 10 | > 10 | > 10 | > 10 | > 10 |
| CCO[C@@H](Cc1ccc(OCCn2c(C)ccc2-c2ccc(SC)cc2)cc1)C(=O)O [saroglitazar] | 97.3 | 95.5 | 88.4 | 97.1 | 104 | 102 | 89.1 | 101 | 97.5 | 93.9 | 93.3 | 80.3 | 97.6 | 89.9 | 105 | 99.5 | 96.3 | 88.1 | 87.8 | 95.2 | 92 | 92.8 | 122 | 93.7 | 100 | 0 | 0 | 0 | 1.2 | 0 | > 10 | > 10 | > 10 | > 10 | > 10 |
| O=C(O)CCc1nc(-c2ccccc2)c(-c2ccccc2)o1 [oxaprozin] | 104 | 99.1 | 107 | 109 | 92.1 | 102 | 95.4 | 101 | 94.2 | 96.8 | 98.3 | 92.1 | 102 | 96.8 | 102 | 99 | 97.5 | 94.8 | 104 | 97.2 | 94.7 | 97.1 | 100 | 108 | 101 | 0 | 0 | 0 | 0 | 0 | > 10 | > 10 | > 10 | > 10 | > 10 |
| OC[C@H]1O[C@@H](n2cnc3c(NC4CCCC4)ncnc32)[C@H](O)[C@@H]1O [N6-cyclopentyladenosine] | 112 | 95.6 | 99.1 | 92.7 | 100 | 97.7 | 98.8 | 98.2 | 102 | 112 | 108 | 96.6 | 94 | 102 | 100 | 92.4 | 91.4 | 92.2 | 93.9 | 102 | 92.8 | 99.7 | 109 | 104 | 116 | 0 | 0 | 0 | 0 | 0 | > 10 | > 10 | > 10 | > 10 | > 10 |
| COC(=O)N[C@H](C(=O)N1CCC[C@H]1c1nc(-c2ccc3c(c2)O[C@@H](c2ccccc2)n2c-3cc3cc(-c4c[nH]c([C@@H]5CCCN5C(=O)[C@@H](NC(=O)OC)C(C)C)n4)ccc32)c[nH]1)C(C)C [elbasvir] | 110 | 88.7 | 108 | 104 | 96.8 | 90.3 | 100 | 98.2 | 97.8 | 99.7 | 99.9 | 106 | 95.8 | 107 | 102 | 105 | 98.5 | 95.3 | 95.5 | 107 | 85 | 103 | 93.1 | 96.1 | 101 | 0 | 0 | 0 | 0 | 0 | > 10 | > 10 | > 10 | > 10 | > 10 |
